Results taken from ChEMBL document CHEMBL1147873, “Synthesis and biological evaluation of novel analogues of dictyostatin” (Bioorg Med Chem Lett, 2007).

How the values were obtained:
Format in all cases: functional, cell-based
NCI = test: Cytotoxicity against human Taxol-adriamycin-resistant NCI cells after 72 hrs by MTT assay
ASPC1 = test: Cytotoxicity against human AsPC1 cells after 72 hrs by MTT assay; settings: ASPC1, 72 h
PANC-1 = test: Cytotoxicity against human PANC1 cells after 72 hrs by MTT assay; settings: PANC-1, 72 h
DLD-1 = test: Cytotoxicity against human DLD1 cells after 72 hrs by MTT assay; settings: DLD-1, 72 h

Row | SMILES | IC50 (NCI) | IC50 (ASPC1) | IC50 (PANC-1) | IC50 (DLD-1)
1 | C=C/C=C\[C@H](C)[C@@H]1OC(=O)/C=C\C=C\[C@@H](C)[C@@H](O)C[C@H](O)/C=C\[C@H](C)[C@H](O)[C@@H](C)CCCC[C@@H](O)[C@@H]1C | 1500 nM | 170 nM | 130 nM | 85 nM
2 | C=C/C=C\[C@H](C)[C@@H]1OC(=O)/C=C\C=C\[C@@H](C)[C@@H](O)C[C@@H](O)/C=C\[C@H](C)[C@H](O)[C@@H](C)C[C@@H](C)CC[C@@H](O)[C@@H]1C | 1100 nM | 410 nM | 240 nM | 150 nM
3 | C=C/C=C\[C@H](C)[C@@H]1OC(=O)/C=C\C=C\[C@@H](C)[C@@H](O)C[C@@H](O)/C=C\[C@H](C)[C@H](O)[C@@H](C)CCCC[C@@H](O)[C@@H]1C | 2100 nM | 2100 nM | 1500 nM | 790 nM
4 | C=C/C=C\[C@H](C)[C@@H]1OC(=O)/C=C\C=C\[C@@H](C)[C@@H](O)C[C@H](OC)/C=C\[C@H](C)[C@H](O)[C@@H](C)C[C@@H](C)CC[C@@H](O)[C@@H]1C | 8.2 nM | 31 nM | 9.7 nM | 2.4 nM
5 | C=C/C=C\[C@H](C)[C@@H]1OC(=O)/C=C\C=C\[C@@H](C)[C@@H](O)C[C@H](O)/C=C\[C@H](C)[C@H](O)[C@@H](C)C[C@@H](C)CC[C@@H](O)[C@@H]1C [DICTYOSTATIN] | 9.8 nM |  |  | 
6 | C=C/C=C\[C@H](C)[C@H](OC(N)=O)[C@@H](C)[C@H](O)[C@@H](C)C/C(C)=C\[C@H](C)[C@@H](O)[C@@H](C)/C=C\[C@@H](O)C[C@@H]1OC(=O)[C@H](C)[C@@H](O)[C@H]1C [DISERMOLIDE] | 160 nM |  |  | 
